# Assay results from patent US8338335B2, “Synergistic herbicidal composition containing fluroxypyr and penoxsulam, halosulfuron-methyl, imazamox or imazethapyr” (Dow Agrosciences, LLC, priority 2009, dated 2012).
# “And” between values parts separate entries of the source, which are not always exact repeats. Equal values may be shown once.
# Tests used:
# [1] = tested on: Plantago lanceolata, PLALA; narrow-leaved plantain; assay: Postemergence herbicidal activity of mixtures in the field, PLALA; assay type: in vivo
# Protocol: (§1) Field trials were conducted in rice and turf using standard herbicide small plot research methodology. Plots varied from 3×3 meter (m) to 3×10 m (width×length) with 4 replicates per treatment. The rice crop was grown using normal cultural practices for fertilization, seeding, watering, flooding and maintenance to ensure good growth of the crop and the weeds. The turf crop was a permanent established crop of centipedegrass that was grown and maintained under normal cultural practices for fertilization, watering, mowing and disease maintenance to ensure good growth of the crop and the weeds.
# (§2) All treatments in the field trials were applied using a carbon dioxide (CO2) backpack sprayer calibrated to apply 187 L/ha spray volume. Commercially available products of penoxsulam and fluoroxypyr-meptyl were mixed in water at appropriately formulated product rates to achieve the desired rates based on a unit area of application (hectare) to achieve the desired rates as shown. Treatments were rated at 7 to 33 days after application as compared to the untreated control plants. Visual weed control was scored on a scale of 0 to 100 percent where 0 corresponds to no injury and 100 corresponds to complete kill. […]
# [2] = tested on: Echinochloa crus-galli (ECHCG); barnyardgrass; assay: Postemergence herbicidal activity of mixtures in the greenhouse, ECHCG; assay type: in vivo
# Protocol: (§3) Seeds of the desired test plant species were planted in 80% mineral soil/20% grit planting mixture, which typically has a pH of 7.2 and an organic matter content of about 2.9 percent, in plastic pots with a surface area of 128 square centimeters (cm^2). The growing medium was steam sterilized. The plants were grown for 7-19 days in a greenhouse with an approximate 14-hour (h) photoperiod which was maintained at about 29° C. during the day and 26° C. during the night. Nutrients and water were added on a regular basis and supplemental lighting was provided with overhead metal halide 1000-Watt lamps as necessary. The plants were treated with postemergence foliar applications when they reached the third to fourth true leaf stage. All treatments were applied using a randomized complete block trial design, with 4 replications per treatment.
# (§4) Treatments consisted of the compounds as listed in Tables 1, 3, 5 and 6, each compound applied alone and in combination. Formulated amounts of penoxsulam, halosulfuron-methyl, imazamox and fluoroxypyr-meptyl ester, were placed in 60 milliliter (mL) glass vials and dissolved in a volume of 60 mL of a water solution containing Agri-dex crop oil concentrate in a 1% volume per volume (v/v) ratio. Compound requirements are based upon a 12 mL application volume at a rate of 187 liters per hectare (L/ha). Spray solutions of the mixtures were prepared by adding the stock solutions to the appropriate amount of dilution solution to form 12 mL spray solution with active ingredients in single and two way combinations. Formulated compounds were applied to the plant material with an overhead Mandel track sprayer equipped with 8002E nozzles calibrated to deliver 187 L/ha at a spray height of 18 inches (43 centimeters (cm)) above average plant canopy.
# (§5) The treated plants and control plants were placed in a greenhouse as described above and watered by sub-irrigation to prevent wash-off of the test compounds. Treatments were rated at 7 to 21 days after application (DAA) as compared to the untreated control plants. Visual weed control was scored on a scale of 0 to 100 percent where 0 corresponds to no injury and 100 corresponds to complete kill.
# (§6) Colby's equation was used to determine the herbicidal effects expected from the mixtures (Colby, S. R. Calculation of the synergistic and antagonistic response of herbicide combinations. Weeds 1967, 15, 20-22).
# (§7) The following equation was used to calculate the expected activity of mixtures containing two active ingredients, A and B: Expected=A+B−(A×B/100)
# [3] = tested on: Caperonia palustris, CNPPA; Texasweed; assay: Postemergence herbicidal activity of mixtures in the field, CNPPA; assay type: in vivo
# Protocol: as §1
# All treatments in the field trials were applied using a carbon dioxide (CO2) backpack sprayer calibrated to apply 187 L/ha spray volume. Commercially available products of penoxsulam and fluoroxypyr-meptyl were mixed in water at appropriately formulated product rates to achieve the desired rates based on a unit area of application (hectare) to achieve the desired rates as shown. Treatments were rated at 7 to 33 days after application as compared to the untreated control plants. Visual weed control was scored on a scale of 0 to 100 percent where 0 corresponds to no injury and 100 corresponds to complete kill.
# as §6, §7
# [4] = tested on: Scirpus juncoides (SCPJU); Japanese bulrush; assay: Postemergence herbicidal activity of mixtures in the greenhouse, SCPJU; assay type: in vivo
# Protocol: as §3
# Treatments consisted of the compounds as listed in Tables 1, 3, 5 and 6, each compound applied alone and in combination. […]
# (§8) The treated plants and control plants were placed in a greenhouse as described above and watered by sub-irrigation to prevent wash-off of the test compounds. […] Visual weed control was scored on a scale of 0 to 100 percent where 0 corresponds to no injury and 100 corresponds to complete kill. […]
# [5] = tested on: Sesbania exaltata, SEBEX; Hemp sesbania; assay: Postemergence herbicidal activity of mixtures in the field, SEBEX; assay type: in vivo
# Protocol: as §1, §2
# Centipedegrass (ERLOP) = assay: Crop injury (safening) in the field, centipedegrass; assay type: in vivo, Eremochloa ophiuroides
# Protocol: as §1, §2
# [6] = tested on: Leptochloa spp, LEFSS; sprangletop; assay: Postemergence herbicidal activity of mixtures in the field, LEFSS; assay type: in vivo
# Protocol: as §1
# All treatments in the field trials were applied using a carbon dioxide (CO2) backpack sprayer calibrated to apply 187 L/ha spray volume. […] Treatments were rated at 7 to 33 days after application as compared to the untreated control plants. Visual weed control was scored on a scale of 0 to 100 percent where 0 corresponds to no injury and 100 corresponds to complete kill.
# as §6, §7
# [7] = tested on: Panicum dichotomiflorum, PANDI; fall panicum; assay: Postemergence herbicidal activity of mixtures in the field, PANDI; assay type: in vivo
# Protocol: as §1, §2
# [8] = tested on: Leptochloa chinensis (LEFCH); Chinese sprangletop; assay: Postemergence herbicidal activity of mixtures in the greenhouse, LEFCH; assay type: in vivo; settings: 21 DAA
# Protocol: as §3, §4, §8
# [9] = tested on: Brachiaria platyphylla (BRAPP); broadleaf signalgrass; assay: Postemergence herbicidal activity of mixtures in the greenhouse, BRAPP; assay type: in vivo; settings: 21 DAA
# Protocol: as §3, §4, §5, §6, §7
# Sunflower (HELAN) = assay: Crop injury (safening) in the field, sunflower; assay type: in vivo, Helianthus annuus; settings: Fluroxypyr-meptyl 100 g ae/ha alone
# [10] = tested on: Cyperus esculentus (CYPES); yellow nutsedge; assay: Postemergence herbicidal activity of mixtures in the greenhouse, CYPES; assay type: in vivo; settings: 21 DAA
# Protocol: as §3, §4, §5, §6, §7
# [11] = Fluroxypyr-meptyl 200 g ae/ha alone
# [12] = Fluroxypyr-meptyl 97 g ae/ha alone
# [13] = Fluroxypyr-meptyl 290 g ae/ha alone
# [14] = Halosulfuron-methyl 4.4 g ai/ha alone
# [15] = Halosulfuron-methyl 18 g ai/ha alone
smiles,measurement,setting,value
"COc1cnc(OC)n2nc(NS(=O)(=O)c3c(OCC(F)F)cccc3C(F)(F)F)nc12 [Penoxsulam, 2-(2,2-difluoroethoxy)-N-(5,8-dimethoxy-[1,2,4]triazolo[1,5-c]pyrimidin-2-yl)-6-(trifluoromethyl)benzenesulfonamide]",% Control PLALA Ob,[1]; Penoxsulam 15 g ai/ha alone,13%
same,% Control ECHCG Ob,[2]; Penoxsulam 15 g ai/ha alone,84% and 78% and 62%
same,% Control CNPPA Ob,[3]; Penoxsulam 35 g ai/ha alone,67%
same,% Control SCPJU Ob,[4]; Penoxsulam 10 g ai/ha alone,2%
same,% Control SEBEX Ob,[5]; Penoxsulam 22 g ai/ha alone,76%
same,% Injury ERLOP Ob,Centipedegrass (ERLOP); in vivo,15%
"CCc1cnc(C2=NC(C)(C(C)C)C(=O)N2)c(C(=O)O)c1 (centres unmarked) [Imazethapyr, 2-[4,5-dihydro-4-methyl-4-(1-methylethyl)-5-oxo-1H-imidazol-2-yl]-5-ethyl-3-pyridinecarboxylic acid]",% Control LEFSS Ob,[6]; Imazethapyr 70 g ai/ha alone,28%
same,% Control PANDI Ob,[7]; Imazethapyr 70 g ai/ha alone,40%
"CCCCCCC(C)OC(=O)COc1nc(F)c(Cl)c(N)c1Cl (centres unmarked) [Fluroxypyr-meptyl, fluoroxypyr-meptyl ester]",% Control PLALA Ob,[1]; Fluroxypyr-meptyl 140 g ae/ha alone,0%
same,% Control LEFCH Ob,[8]; [11],15%
same,% Control ECHCG Ob,"[2]; Fluroxypyr-meptyl 50 g ae/ha alone, 21 DAA, Table 5",6%
same,% Control ECHCG Ob,"[2]; Fluroxypyr-meptyl 50 g ae/ha alone, 21 DAA, Table 6",1.3%
same,% Control ECHCG Ob,"[2]; Fluroxypyr-meptyl 100 g ae/ha alone, 21 DAA, Table 5",2%
same,% Control ECHCG Ob,"[2]; Fluroxypyr-meptyl 100 g ae/ha alone, 21 DAA, Table 6",4%
same,% Control ECHCG Ob,"[2]; Fluroxypyr-meptyl 200 g ae/ha alone, 21 DAA, Table 5",11%
same,% Control ECHCG Ob,"[2]; Fluroxypyr-meptyl 200 g ae/ha alone, 21 DAA, Table 6",6%
same,% Control ECHCG Ob,"[2]; Fluroxypyr-meptyl 340 g ae/ha alone, Table 1",0%
same,% Control CNPPA Ob,[3]; [12],45%
same,% Control CNPPA Ob,[3]; [13],60%
same,% Control LEFSS Ob,[6]; [13],0%
same,% Control BRAPP Ob,[9]; Fluroxypyr-meptyl 50 g ae/ha alone,10%
same,% Control BRAPP Ob,[9]; Fluroxypyr-meptyl 100 g ae/ha alone,23%
same,% Control BRAPP Ob,[9]; [11],20%
same,% Control SCPJU Ob,[4]; Fluroxypyr-meptyl 70 g ae/ha alone,60%
same,% Control PANDI Ob,[7]; [13],0%
same,% Injury HELAN Ob,Sunflower (HELAN),31% and 34%
same,% Control SEBEX Ob,[5]; [12],57%
same,% Injury ERLOP Ob,"Centipedegrass (ERLOP); Fluroxypyr-meptyl 210 g ae/ha alone, field",6%
same,% Control CYPES Ob,"[10]; Fluroxypyr-meptyl 50 g ae/ha alone, Table 5",1%
same,% Control CYPES Ob,"[10]; Fluroxypyr-meptyl 100 g ae/ha alone, Table 5",3%
same,% Control CYPES Ob,"[10]; Fluroxypyr-meptyl 100 g ae/ha alone, Table 6",10%
same,% Control CYPES Ob,"[10]; Fluroxypyr-meptyl 200 g ae/ha alone, Table 5",8%
same,% Control CYPES Ob,"[10]; Fluroxypyr-meptyl 200 g ae/ha alone, Table 6",9%
"COCc1cnc(C2=NC(C)(C(C)C)C(=O)N2)c(C(=O)O)c1 (centres unmarked) [Imazamox, 2-[4,5-dihydro-4-methyl-4-(1-methylethyl)-5-oxo-1H-imidazol-2-yl]-5-(methoxymethyl)-3-pyridinecarboxylic acid]",% Control ECHCG Ob,"[2]; Imazamox 4.4 g ai/ha alone, 21 DAA",1.3%
same,% Control ECHCG Ob,"[2]; Imazamox 8.8 g ai/ha alone, 21 DAA",29%
same,% Control ECHCG Ob,"[2]; Imazamox 18 g ai/ha alone, 21 DAA",85%
same,% Control BRAPP Ob,[9]; Imazamox 4.4 g ai/ha alone,3%
same,% Control BRAPP Ob,[9]; Imazamox 8.8 g ai/ha alone,46%
same,% Control CYPES Ob,[10]; Imazamox 8.8 g ai/ha alone,8%
same,% Control CYPES Ob,[10]; Imazamox 18 g ai/ha alone,42%
"COC(=O)c1c(Cl)nn(C)c1S(=O)(=O)NC(=O)Nc1nc(OC)cc(OC)n1 [Halosulfuron-methyl, methyl 3-chloro-5-[[[[(4,6-dimethoxy-2-pyrimidinyl)amino]carbonyl]amino]sulfonyl]-1-methyl-1H-pyrazole-4-carboxylate]",% Control LEFCH Ob,[8]; [14],2%
same,% Control LEFCH Ob,[8]; [15],8%
same,% Control ECHCG Ob,"[2]; Halosulfuron-methyl 8.8 g ai/ha alone, 21 DAA",3%
same,% Control ECHCG Ob,"[2]; Halosulfuron-methyl 18 g ai/ha alone, 21 DAA",6%
same,% Control CYPES Ob,[10]; [14],68%
same,% Control CYPES Ob,[10]; Halosulfuron-methyl 8.8 g ai/ha alone,73%
same,% Control CYPES Ob,[10]; [15],78%
